Laboratory results as given in patent US10689366B2, “Compounds for MALT1 degredation” (Cornell University, priority 2016, dated 2020).

target: T1, MALT1 (Homo sapiens, UniProt Q9UDY8); test: MALT1 degradation assay (Western blot) in OCI-Ly3 cells; type: cell-based; set-up: endogenous in cells; host or cells: OCI-Ly3; details: 48 hours, normalized to Actin, relative to vehicle treated cells
T1 sequence (Q9UDY8 1-824): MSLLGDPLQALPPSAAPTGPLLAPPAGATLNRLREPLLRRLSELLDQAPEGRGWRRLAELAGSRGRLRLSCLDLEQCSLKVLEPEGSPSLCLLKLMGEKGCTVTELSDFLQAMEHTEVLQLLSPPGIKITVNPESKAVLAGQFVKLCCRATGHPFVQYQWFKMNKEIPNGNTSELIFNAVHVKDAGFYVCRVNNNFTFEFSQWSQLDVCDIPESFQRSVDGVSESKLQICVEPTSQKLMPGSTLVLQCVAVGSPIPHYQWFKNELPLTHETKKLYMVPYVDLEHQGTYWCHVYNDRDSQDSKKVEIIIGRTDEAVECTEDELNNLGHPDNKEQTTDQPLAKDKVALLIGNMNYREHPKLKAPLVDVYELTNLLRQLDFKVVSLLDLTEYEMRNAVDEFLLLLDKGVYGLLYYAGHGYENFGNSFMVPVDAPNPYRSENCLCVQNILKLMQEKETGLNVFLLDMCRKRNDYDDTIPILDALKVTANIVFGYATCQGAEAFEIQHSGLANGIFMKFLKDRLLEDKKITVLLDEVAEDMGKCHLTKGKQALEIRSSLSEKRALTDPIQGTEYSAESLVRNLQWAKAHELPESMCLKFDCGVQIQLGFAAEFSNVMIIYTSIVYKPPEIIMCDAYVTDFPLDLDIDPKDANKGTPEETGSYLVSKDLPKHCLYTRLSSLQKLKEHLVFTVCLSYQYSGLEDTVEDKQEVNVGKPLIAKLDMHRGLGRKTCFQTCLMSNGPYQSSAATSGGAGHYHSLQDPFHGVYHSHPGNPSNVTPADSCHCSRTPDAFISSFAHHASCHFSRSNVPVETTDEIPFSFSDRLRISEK
Procedure: In the experiments, OCI-Ly3 cells were grown for 6 hours in the presence of the indicated concentrations of Examples 1-6, 9, and 10. Proteins were extracted, analyzed by Western blot, and membranes were immunoblotted for MALT1, CRBN, and Actin. Table 3 provides the results of experimental data obtained from the example compounds of the present disclosure. In particular, OCI-Ly3 cells were grown for 48 hours in the presence of the indicated concentrations of Examples 1-19. Proteins were extracted, analyzed by Western blot, and membranes were immunoblotted for MALT1, CRBN, and Actin. Western blot bands were quantified using Image Lab software. Results were normalized to Actin expression and presented as % MALT1 degradation relative to vehicle treated cells.

| Compound | % MALT1 degradation at 1 µM |
| --- | --- |
| CO[C@@H](C)c1c(NC(=O)Nc2cnc(-n3cc(CNC(=O)CCOCCOCCOCCN4CCN(Cc5ccc(COc6cccc7c6CN([C@H]6CCC(=O)NC6=O)C7=O)cc5)CC4)cn3)c(Cl)c2)cnc2cc(Cl)nn12 [Example 18, N-((1-(3-Chloro-5-(3-(2-chloro-7-((S)-1-methoxyethyl)pyrazolo[1,5-a]pyrimidin-6-yl)ureido)pyridin-2-yl)-1H-pyrazol-4-yl)methyl)-3-(2-(2-(2-(4-(4-(((2-((5)-2,6-dioxopiperidin-3-yl)-1-oxoisoindolin-4-yl)oxy)methyl)benzyl)piperazin-1-yl)ethoxy)ethoxy)ethoxy)propanamide] | >50% |
| CO[C@@H](C)c1c(NC(=O)Nc2cnc(-n3cc(CNC(=O)CCOCCOCCOCCOCCC(=O)N[C@H](C(=O)N4C[C@H](O)CC4C(=O)NCc4ccc(-c5scnc5C)cc4)C(C)(C)C)cn3)c(Cl)c2)cnc2cc(Cl)nn12 (stereo partly drawn) [Example 10] | no degradation |

same assay, conditions: 48 hours, normalized to Actin, relative to vehicle treated cells, read-out: % MALT1 Degradation at 1 μM

| Compound | % MALT1 degradation at 1 µM |
| --- | --- |
| CO[C@@H](C)c1c(NC(=O)Nc2cc(Cl)cnc2OCCNC(=O)CCOCCOCCNc2cccc3c2CN(C2CCC(=O)NC2=O)C3=O)cnc2cc(Cl)nn12 (stereo partly drawn) [Example 6, N-(2-((5-Chloro-3-(3-(2-chloro-7-((S)-1-methoxyethyl)pyrazolo[1,5-a]pyrimidin-6-yl)ureido)pyridin-2-yl)oxy)ethyl)-3-(2-(2-((2-(2,6-dioxopiperidin-3-yl)-1-oxoisoindolin-4-yl)amino)ethoxy)ethoxy)propanamide] | > 50% |
| CO[C@@H](C)c1c(NC(=O)Nc2cnc(-n3cc(CNC(=O)CCOCCOCCOCCOCCNc4cccc5c4C(=O)N(C4CCC(=O)NC4=O)C5=O)cn3)c(Cl)c2)cnc2cc(Cl)nn12 (stereo partly drawn) [Example 2, N-((1-(3-Chloro-5-(3-(2-chloro-7-((S)-1-methoxyethyl)pyrazolo[1,5-a]pyrimidin-6-yl)ureido)pyridin-2-yl)-1H-pyrazol-4-yl)methyl)-1-((2-(2,6-dioxopiperidin-3-yl)-1,3-dioxoisoindolin-4-yl)amino)-3,6,9,12-tetraoxapentadecan-15-amide] | > 50% |
| CO[C@@H](C)c1c(NC(=O)Nc2cc(Cl)cnc2OCCNC(=O)CCOCCOCCOCCOCCNc2cccc3c2C(=O)N(C2CCC(=O)NC2=O)C3=O)cnc2cc(Cl)nn12 (stereo partly drawn) [Example 3, N-(2-((5-Chloro-3-(3-(2-chloro-7-((S)-1-methoxyethyl)pyrazolo[1,5-a]pyrimidin-6-yl)ureido)pyridin-2-yl)oxy)ethyl)-1-((2-(2,6-dioxopiperidin-3-yl)-1,3-dioxoisoindolin-4-yl)amino)-3,6,9,12-tetraoxapentadecan-15-amide] | > 50% |
| C[C@@H](c1c(NC(=O)Nc2cnc(-n3nccn3)c(Cl)c2)cnc2cc(Cl)nn12)N(C)C(=O)CCOCCOCCNc1cccc2c1CN(C1CCC(=O)NC1=O)C2=O (stereo partly drawn) [Example 4, N—((S)-1-(2-Chloro-6-(3-(5-chloro-6-(2H-1,2,3-triazol-2-yl)pyridin-3-yl)ureido)pyrazolo[1,5-a]pyrimidin-7-yl)ethyl)-3-(2-(2-((2-(2,6-dioxopiperidin-3-yl)-1-oxoisoindolin-4-yl)amino)ethoxy)ethoxy)-N-methylpropanamide] | 31 to 50% |
| CC(C)c1c(NC(=O)Nc2cnc(-n3cc(CNC(=O)CCOCCOCCNc4cccc5c4CN(C4CCC(=O)NC4=O)C5=O)cn3)c(Cl)c2)cnc2cc(Cl)nn12 (stereo not drawn) [Example 7, N-((1-(3-Chloro-5-(3-(2-chloro-7-isopropylpyrazolo[1,5-a]pyrimidin-6-yl)ureido)pyridin-2-yl)-1H-pyrazol-4-yl)methyl)-3-(2-(2-((2-(2,6-dioxopiperidin-3-yl)-1-oxoisoindolin-4-yl)amino)ethoxy)ethoxy)propanamide] | 31 to 50% |
| Cc1c(NC(=O)Nc2cnc(-n3cc(CNC(=O)CCOCCOCCNc4cccc5c4CN(C4CCC(=O)NC4=O)C5=O)cn3)c(Cl)c2)cnc2ccc(Br)cc12 (stereo not drawn) [Example 8, N-((1-(5-(3-(6-Bromo-4-methylquinolin-3-yl)ureido)-3-chloropyridin-2-yl)-1H-pyrazol-4-yl)methyl)-3-(2-(2-((2-(2,6-dioxopiperidin-3-yl)-1-oxoisoindolin-4-yl)amino)ethoxy)ethoxy)propanamide] | 31 to 50% |

Second part, the molecule after the results:

| % MALT1 degradation at 1 µM | Compound |
| --- | --- |
| > 50% | CO[C@@H](C)c1c(NC(=O)Nc2cc(Cl)cnc2OCCNC(=O)CCOCCOCCOCCN2CCN(Cc3ccc(COc4cccc5c4CN([C@H]4CCC(=O)NC4=O)C5=O)cc3)CC2)cnc2cc(Cl)nn12 [Example 19, N-(2-((5-Chloro-3-(3-(2-chloro-7-((S)-1-methoxyethyl)pyrazolo[1,5-a]pyrimidin-6-yl)ureido)pyridin-2-yl)oxy)ethyl)-3-(2-(2-(2-(4-(4-(((2-((S)-2,6-dioxopiperidin-3-yl)-1-oxoisoindolin-4-yl)oxy)methyl)benzyl)piperazin-1-yl)ethoxy)ethoxy)ethoxy)propanamide] |
| > 50% | C[C@@H](c1c(NC(=O)Nc2cnc(-n3nccn3)c(Cl)c2)cnc2cc(Cl)nn12)N(C)C(=O)CCOCCOCCOCCN1CCN(Cc2ccc(COc3cccc4c3CN([C@H]3CCC(=O)NC3=O)C4=O)cc2)CC1 [Example 17, N-((S)-1-(2-Chloro-6-(3-(5-chloro-6-(2H-1,2,3-triazol-2-yl)pyridin-3-yl)ureido)pyrazolo[1,5-a]pyrimidin-7-yl)ethyl)-3-(2-(2-(2-(4-(4-(((2-((S)-2,6-dioxopiperidin-3-yl)-1-oxoisoindolin-4-yl)oxy)methyl)benzyl)piperazin-1-yl)ethoxy)ethoxy)ethoxy)-N-methylpropanamide] |
| > 50% | CO[C@@H](C)c1c(NC(=O)Nc2cc(Cl)cnc2OCCNC(=O)CCOCCOCCOCCOCCOCCOCCNc2cccc3c2C(=O)N(C2CCC(=O)NC2=O)C3=O)cnc2cc(Cl)nn12 (stereo partly drawn) [Example 15, N-(2-((5-Chloro-3-(3-(2-chloro-7-((S)-1-methoxyethyl)pyrazolo[1,5-a]pyrimidin-6-yl)ureido)pyridin-2-yl)oxy)ethyl)-1-((2-(2,6-dioxopiperidin-3-yl)-1,3-dioxoisoindolin-4-yl)amino)-3,6,9,12,15,18-hexaoxahenicosan-21-amide] |
| > 50% | CO[C@@H](C)c1c(NC(=O)Nc2cc(Cl)cnc2OCCNC(=O)CCOCCOCCOCCOCCNc2cccc3c2CN(C2CCC(=O)NC2=O)C3=O)cnc2cc(Cl)nn12 (stereo partly drawn) [Example 11, N-(2-((5-Chloro-3-(3-(2-chloro-7-((S)-1-methoxyethyl)pyrazolo[1,5-a]pyrimidin-6-yl)ureido)pyridin-2-yl)oxy)ethyl)-1-((2-(2,6-dioxopiperidin-3-yl)-1-oxoisoindolin-4-yl)amino)-3,6,9,12-tetraoxapentadecan-15-amide] |
| 10 to 30% | CO[C@@H](C)c1c(NC(=O)Nc2cc(Cl)cnc2OCCNC(=O)CCOCCOCCOCCOCCC(=O)N[C@H](C(=O)N2C[C@H](O)CC2C(=O)NCc2ccc(-c3scnc3C)cc2)C(C)(C)C)cnc2cc(Cl)nn12 (stereo partly drawn) [Example 9, N^1-(2-((5-Chloro-3-(3-(2-chloro-7-((S)-1-methoxyethyl)pyrazolo[1,5-a]pyrimidin-6-yl)ureido)pyridin-2-yl)oxy)ethyl)-N^16-((2S)-1-((4R)-4-hydroxy-2-((4-(4-methylthiazol-5-yl)benzyl)carbamoyl)pyrrolidin-1-yl)-3,3-dimethyl-1-oxobutan-2-yl)-4,7,10,13-tetraoxahexadecanediamide] |
| > 50% | CO[C@@H](C)c1c(NC(=O)Nc2cc(Cl)cnc2OCCNC(=O)CCOCCOCCNc2cccc3c2C(=O)N(C2CCC(=O)NC2=O)C3=O)cnc2cc(Cl)nn12 (stereo partly drawn) [Example 14, N-(2-((5-Chloro-3-(3-(2-chloro-7-((S)-1-methoxyethyl)pyrazolo[1,5-a]pyrimidin-6-yl)ureido)pyridin-2-yl)oxy)ethyl)-3-(2-(2-((2-(2,6-dioxopiperidin-3-yl)-1,3-dioxoisoindolin-4-yl)amino)ethoxy)ethoxy)propanamide] |
| 31 to 50% | CO[C@@H](C)c1c(NC(=O)Nc2cc(Cl)cnc2OCCNC(=O)CCOCCNc2cccc3c2CN(C2CCC(=O)NC2=O)C3=O)cnc2cc(Cl)nn12 (stereo partly drawn) [Example 12, N-(2-((5-Chloro-3-(3-(2-chloro-7-((S)-1-methoxyethyl)pyrazolo[1,5-a]pyrimidin-6-yl)ureido)pyridin-2-yl)oxy)ethyl)-3-(2-((2-(2,6-dioxopiperidin-3-yl)-1-oxoisoindolin-4-yl)amino)ethoxy)piopanamide] |
